Measurements taken from patent US20210023012A1, “Solid Pharmaceutical Compositions for Treating HCV” (AbbVie Inc., priority 2019, published 2021).

Columns and labels:
[1] = Single-dose crossover: bioavailability of Compound 1/Compound 2 mini-tablets; type: in vivo, human; conditions: for Cmax / AUC(0-inf) / AUC(0-t) / half-life / Tmax: human, in vivo, oral, N = 14; for Cmax / AUC(0-inf) / AUC(0-t): geometric mean; for half-life: harmonic mean; for Tmax: median
Description: In comparison, when administered with food, the mini-tablets provided an AUC that was only 5% lower than that provided by the regular tablets. […] All of the reference AUCs of the regular tablets were measured under fasting conditions.
14 subjects were enrolled in this study and dosed with co-formulated Compound 1/Compound 2 in mini-tablets. One subject spilled 4 mini-tablets (out of 100-150 total mini-tablets) during dosing of Period 2 (Regimen G) and was not excluded from the analysis. The mini-tablets were prepared according to a process similar to that described in Example 2.

[2] = Phase 1 single-dose crossover: bioavailability and food effect of Compound 1/Compound 2 bilayer tablets; type: in vivo, human; conditions: film-coated vs uncoated bilayer tablets, additional studies
Blood-to-plasma ratio = type: in vitro ADME; conditions: human, whole blood/plasma
clinical = conditions: human, in vivo
From the text: Target AUC was derived from the geometric mean of AUC values from a population of adult subjects who received Compound 1 and Compound 2.

[3] = Pharmacokinetic properties in healthy subjects; type: in vivo, human; conditions: for Tmax: oral, median, single doses
[4] = Binding to human plasma proteins; type: in vitro ADME; conditions: read-out: % Bound to human plasma proteins (converted)
[5] = Phase 1 single-dose crossover: bioavailability and food effect of Compound 1/Compound 2 bilayer tablets; type: in vivo, human; conditions: for Cmax / AUC(0-inf) / AUC(0-t) / half-life / Tmax: human, in vivo, oral, N = 23; for Cmax / AUC(0-inf) / AUC(0-t): geometric mean; for half-life: harmonic mean; for Tmax: median
Description: Phase 1, single-dose, four-period, randomized, complete crossover clinical trials were conducted to determine the bioavailability and food effect of the Compound 1/Compound 2 film-coated bilayer tablets. Tablets described in Table 1b were used in Regimens A, B and C, and separate tablets containing either Compound 1 or Compound 2 were used in Regimen D. Subjects took a single dose of Compound 1/Compound 2 on Day 1 of each Period. There was a washout of 4 days between doses. • i. Regimens A and D: study drugs were taken under fasting conditions. • ii. Regimen B: study drugs were taken approximately 30 minutes after start of moderate-fat breakfast (about 30% calories from fat). • iii. Regimen C: study drugs were taken approx. 30 minutes after start of high-fat breakfast (50% calories from fat). For Regimens A, B and C, the single dose consisted of three tablets of Table 1b, each tablet contains 100 mg/40 mg Compound 1/Compound 2. For Regimen D, the single dose contained three tablets of Compound 1, each of which contained 100 mg Compound 1, as well as three tablets of Compound 2, each of which contained 40 mg Compound 2. [table] [table]

[6] = Steady-state pharmacokinetics of film-coated granules in pediatric subjects by age group; type: in vivo, human; set-up: Ctrough: unit not given here; conditions: for Ctrough / AUC: Week 2; for AUC: human, oral, film-coated granules
Description: The study was designed to assess the steady state AUC and to assess the pharmacokinetics (PK) of Compound 1/Compound 2 in pediatric subjects by age group. […] Subjects were enrolled in this study and dosed with film-coated granules containing Compound 1/Compound 2 as generally described above in Example 3. [table] An intensive PK sample draw was done at the Week 2 visit with blood samples taken immediately prior to dose (0 hour) and at 2, 4, 6, and 12 hours post dose.

[7] = Mass balance studies with [14C] compound, single dose; type: in vivo, human; conditions: single dose of [14C] compound
[8] = Predicted PK exposures (Pop-PK AUC) in pediatric subjects; type: in vivo; set-up: concentration or dose not given beside the values; conditions: human, oral
From the text: The predicted PK exposures (“Pop-PK AUC”) of Compound 1/Compound 2 based on all PK information collected in the study (including data from other study weeks) is shown in Table 13 and Table 13a.

[9] = Regimen F: single dose mini-tablets 200 mg/120 mg, fasting
[10] = Regimen G: single dose mini-tablets 200 mg/120 mg, non-fasting
[11] = Regimen J: two Compound 1 tablets (100 mg each) and three Compound 2 tablets (40 mg each), fasting
[12] = mean systemic exposure with moderate to high fat meals
[13] = Regimen A: single dose bilayer tablets 300 mg/120 mg, fasting
[14] = Regimen B: single dose bilayer tablets 300 mg/120 mg with moderate fat breakfast
[15] = Regimen C: single dose bilayer tablets 300 mg/120 mg with high fat breakfast
[16] = Regimen D: single dose separate Compound 1 tablets (3 × 100 mg) and Compound 2 tablets (3 × 40 mg), fasting

In the case of COC(=O)N[C@H](C(=O)N1CCC[C@H]1c1nc2cc([C@H]3CC[C@H](c4cc5nc([C@@H]6CCCN6C(=O)[C@@H](NC(=O)OC)[C@@H](C)OC)[nH]c5cc4F)N3c3cc(F)c(N4CCC(c5ccc(F)cc5)CC4)c(F)c3)c(F)cc2[nH]1)[C@@H](C)OC [Compound 2], the “Effect of administration with food on bioavailability” value ([1]; co-formulated mini-tablets) is reported as “significantly increased”, the Cmax ([1]; Regimen F: single dose mini-tablets 200 mg/120 mg Compound 1/Compound 2, fasting) is reported as 96 ng/mL and the AUC(0-inf) [1, 9] is reported as 913 ng·h/mL. The AUC(0-t) [1, 9] was 863 ng·h/mL, the half-life [1, 9] was 13.4 h and the Tmax [1, 9] was 4 h. It also gave a Cmax ([1]; Regimen G: single dose mini-tablets 200 mg/120 mg Compound 1/Compound 2, non-fasting) of 177 ng/mL, an AUC(0-inf) [1, 10] of 1320 ng·h/mL and an AUC(0-t) [1, 10] of 1250 ng·h/mL. It also gave a half-life [1, 10] of 13.2 h, a Tmax [1, 10] of 3 h and a Cmax ([1]; Regimen J: single dose two Compound 1 tablets (100 mg each) and three Compound 2 tablets (40 mg each), fasting) of 139 ng/mL. The AUC(0-inf) [1, 11] was 1260 ng·h/mL, the AUC(0-t) [1, 11] was 1190 ng·h/mL and the half-life [1, 11] was 13.3 h. The Tmax [1, 11] was 4.5 h, the “AUC of mini-tablets higher than that of regular tablets (fasting)” value ([1]; mini-tablets with food, 120 mg Compound 2) was 6% and the “AUC of mini-tablets lower than that of regular tablets (fasting)” value ([1]; mini-tablets without food, 200 mg Compound 1 / 120 mg Compound 2, same solid dispersion formulation) was 28%. For the same compound, the “Impact of film-coating on bioavailability” value [2] was “minimal impact”, the blood plasma ratio (Blood-to-plasma ratio) was 0.62 and the AUC (clinical) was 1430 ng·h/mL. The Metabolism ([3]; Biotransformation) was “none”, the “Major route of elimination” value ([3]; human, in vivo) was “Biliary” and the Tmax ([3]; human, in vivo, healthy subjects, read-out: Tmax of granules) was 3 to 5 h. For the same compound, the Tmax ([3]; human, in vivo, healthy subjects, read-out: Tmax of tablets) was 5 h, the half-life ([3]; human, in vivo, healthy subjects, read-out: t1/2 at steady-state) was 23 to 29 h and the “Effect of meal (relative to fasting) on adult tablets, ↑” value [3, 12] was “↑ 40-53%”. For the same compound, the “Effect of meal (relative to fasting) on granules, ↑” value [3, 12] was “↑ 56-115%”, the fraction unbound [4] was under 0.001 and the “Effect of administration with food on bioavailability” value ([5]; bilayer tablets) was “significantly improved”. The Cmax ([5]; Regimen A: single dose bilayer tablets 300 mg/120 mg (3 × 100 mg/40 mg), fasting) was 116 ng/mL, the AUC(0-inf) [5, 13] was 960 ng·h/mL and the AUC(0-t) [5, 13] was 910 ng·h/mL. It also gave a half-life [5, 13] of 13.3 h, a Tmax [5, 13] of 4 h and an AUC(0-inf) [5, 14] of 1350 ng·h/mL. The AUC(0-t) [5, 14] was 1280 ng·h/mL, the Cmax [5, 14] was 221 ng/mL and the half-life [5, 14] was 13 h. It also gave a Tmax [5, 14] of 5 h, an AUC(0-inf) [5, 15] of 1460 ng·h/mL and an AUC(0-t) [5, 15] of 1390 ng·h/mL. The Cmax [5, 15] was 237 ng/mL, the half-life [5, 15] was 13.5 h and the Tmax [5, 15] was 5 h. The AUC(0-inf) [5, 16] was 1490 ng·h/mL, the AUC(0-t) [5, 16] was 1420 ng·h/mL and the Cmax [5, 16] was 175 ng/mL. The half-life [5, 16] was 12.5 h, the Tmax [5, 16] was 4 h and the Ctrough ([6]; 3 to <6 years old, post-adjustment 150 mg/60 mg, N 10) was 17.5 (139). For the same compound, the Ctrough ([6]; 6 to <9 years old, post-adjustment 200 mg/80 mg, N 9) was 20.0 (119), the Ctrough ([6]; 9 to <12 years old, post-adjustment 250 mg/100 mg, N 10) was 40.8 (194) and the AUC ([6]; blood, 3 to <6 years old, pre-adjustment, 3 sachets, 120 mg/45 mg, read-out: AUC, Geometric Mean) was 871 ng·h/mL. It also gave an AUC ([6]; blood, 6 to <9 years old, pre-adjustment, 4 sachets, 160 mg/60 mg, read-out: AUC, Geometric Mean) of 987 ng·h/mL, an AUC ([6]; blood, 9 to <12 years old, pre-adjustment, 5 sachets, 200 mg/75 mg Compound 1/Compound 2, read-out: AUC, Geometric Mean) of 1250 ng·h/mL and an AUC ([6]; in vivo, 3 to <6 years old, post-adjustment, 3 sachets, 150 mg/60 mg, N 10, read-out: AUC) of 1660 ng·h/mL. The AUC ([6]; in vivo, 6 to <9 years old, post-adjustment, 4 sachets, 200 mg/80 mg, N 9, read-out: AUC) was 1520 ng·h/mL, the AUC ([6]; in vivo, 9 to <12 years old, post-adjustment, 5 sachets, 250 mg/100 mg Compound 1/Compound 2, N 10, read-out: AUC) was 2300 ng·h/mL and the “Exposures in children aged 3 to <12 years vs adolescents 12 to <18 years and adults from Phase 2/3 studies” value ([6]; recommended doses according to body weight) was “comparable”. The “% of dose excreted in faeces” value [7] was 96.6%, the “% of dose excreted in urine” value [7] was 0% and the AUC ([8]; blood, Table 13, 3 to <6 years old, N 10, predicted) was 1430 ng·h/mL. The AUC ([8]; blood, Table 13, 6 to <9 years old, N 9, predicted) was 1460 ng·h/mL, the AUC ([8]; blood, Table 13, 9 to <12 years old, N 10, predicted from all PK information collected in the study) was 1440 ng·h/mL and the AUC ([8]; in vivo, Table 13a, 3 to <6 years old, N 10, predicted) was 1760 ng·h/mL. It also gave an AUC ([8]; in vivo, Table 13a, 6 to <9 years old, N 9, predicted) of 1730 ng·h/mL and an AUC ([8]; in vivo, Table 13a, 9 to <12 years old, N 10, predicted) of 2360 ng·h/mL.
